From US8377934B2, “Use of stilbene derivatives for treatment and prevention of aquatic mold infections” (State of Israel, Ministry of Agriculture & Rural …, priority 2006, dated 2013)
≈ marks a conversion by molar mass, not a printed value.

How the values were obtained:
S. parasitica = assay: In vitro susceptibility of S. parasitica in Table 4; type: cell-based, Saprolegnia parasitica
Procedure: The in vitro susceptibility of Saprolegnia parasitica T-1 and S. parasitica CBS 540.67 to various compounds was determined by the agar-dilution and broth macrodilution methods.
(§1) Two methods were used, each suitable for a different phase of the asexual life cycle of Saprolegnia spp.: i) the broth macrodilution method, for determination of susceptibility of zoospores and cysts; and ii) the agar-dilution method for determination of susceptibility of filamentous hyphae. Each compound was tested three times in each method. Malachite Green was used as positive control.
(§2) This method is a modification of the method used for molds according to EUCAST 7.1 (European Committee on Antibiotic Susceptibility Testing) and CLSI/NCCLS M27-A2 (Clinical Laboratory Standards Institute/National Committee for Clinical Laboratory Standards). For inoculum preparation, S. parasitica isolates were cultured on GP-PS for 7 days with sterile clover seeds at 18° C. Clover seeds (˜20) covered with mycelium were removed and added to 40 ml of RPMI-1640 broth medium (Sigma; prepared according to NCCLS instructions) and incubated at 18° C. for 4-7 days. Cysts and zoospores free from hyphae were collected, and an inoculum of ˜10^3 CFU/ml as measured by hemacytometer counting, was prepared in RPMI. Fluorescent Brightener 28 stock solution was prepared by adding 40% KOH gradually to a 10 mg/ml solution in water, until it was clear, then it was filtered twice through a 0.2 μm cellulose acetate nonpyrogenic sterile filter (Schleicher & Schuell, Dassel, Germany).
(§3) Twofold serial dilutions of the resulting stock solutions were set in RPMI-1640 medium in a volume of 0.1 ml. Final drug concentrations in the test tubes ranged from 1×10^4 to 0.01 mg/L. Inoculum of 0.9 ml was added to each of a sterile tube containing 0.1 ml of the serially diluted drug. Two tubes containing drug-free medium and two tubes containing drug-free inoculum were used as controls. The inoculated tubes were incubated at room temperature (15-20° C.) for 24 h. The growth in each tube was then evaluated visually.
This method is a modification of the method presented by Bailey (Bailey, T. A. (1983) Prog. Fish Cult. 45:24-27), and was used for the susceptibility testing of Saprolegnia hyphae. Twofold serial dilutions were prepared in double distillated sterile water with final drug concentrations ranging from 10,000 to 0.01 mg/L in a final volume of 1.0 ml. Melted (56° C.) RPMI-1640 agar medium (Sigma) was prepared according to NCCLS instructions, and then added to each tube containing drug or water control. The mixture was vortexed, and poured into small plates. After agar solidification a small measured piece, taken from a 7-10 day old culture of S. parasitica T-1 on GP-PS medium was placed upside down on each plate. The plates were incubated at room temperature (15-20° C.) for 24 h.

S. parasitica CBS 540.67 [1] = assay: Agar-dilution susceptibility testing (filamentous hyphae); type: cell-based, Saprolegnia parasitica
S. parasitica T-1 [2] = assay: as above; type: cell-based, Saprolegnia parasitica; details: 24 h
Procedure: as §1
Twofold serial dilutions were prepared in double distillated sterile water with final drug concentrations ranging from 10,000 to 0.01 mg/L in a final volume of 1.0 ml. […] The mixture was vortexed, and poured into small plates. After agar solidification a small measured piece, taken from a 7-10 day old culture of S. parasitica T-1 on GP-PS medium was placed upside down on each plate. The plates were incubated at room temperature (15-20° C.) for 24 h.

S. parasitica CBS 540.67 [3] = assay: Broth macrodilution susceptibility testing (zoospores and cysts); type: cell-based, Saprolegnia parasitica
Procedure: as §1
as §2, with “Clover seeds (˜20) covered with mycelium were removed and added to 40 ml of RPMI-1640 broth medium (Sigma; prepared according to NCCLS instructions) and incubated at 18° C. for 4-7 days.” left out
as §3, with “Final” for “Twofold serial dilutions of the resulting stock solutions were set in RPMI-1640 medium in a volume of 0.1 ml. Final”

S. parasitica T-1 [4] = assay: as above; type: cell-based, Saprolegnia parasitica; details: 24 h
Procedure: as §1
as §2, with “Clover seeds (˜20) covered with mycelium were removed and added to 40 ml of RPMI-1640 broth medium (Sigma; prepared according to NCCLS instructions) and incubated at 18° C. for 4-7 days.” left out
as §3, with “Final” for “Twofold serial dilutions of the resulting stock solutions were set in RPMI-1640 medium in a volume of 0.1 ml. Final”

tilapia = assay: in vivo; details: for LC50: tilapia, mortality up to 96 h
Procedure: LC50 values were determined by static short-term tests as a measure of the relative acute lethal toxicity for tilapia (Standard methods for the evaluation of water and wastewater (1985) 16th ed. American Public Health Association, Washington, D.C. p. 689-819).
Hybrid tilapia (Oreochromis niloticus X Oreochromis aureus) having an average weight of 20 g, were kept in 100 liter polyethylene tanks at a density of 1 fish per 10 liters, at a constant temperature of 21° C. for three weeks before the initiation of the experiment by addition of a test compound to each tank. […] For the latter experiments, fish were acclimated to the required temperature for three weeks prior to addition of the test compound to the tank. Fish were treated with 5 different concentrations of each test compound, determined according to the MIC values of each compound.
Mortality of fish was recorded up to 96 h. Water parameters (O2, NH4^+, NO2^−, pH and Cl^−) were monitored throughout the experiment and were maintained within acceptable limits. The presented results are the mean of two separate experiments.

[5] = S. parasitica CBS 540.67, 24 h, 15-20° C., geometric mean of three tests
[6] = S. parasitica T-1, 15-20° C., geometric mean of three tests

Compound	Activity in vitro (MIC), grade (S. parasitica; Table 4 summary)	Activity in vitro (MIC), value (S. parasitica; Table 4 summary)	MIC, Agar-dilution (S. parasitica CBS 540.67 [1]; [5])	MIC, Agar-dilution (S. parasitica T-1 [2]; [6])	MIC, Macrodilution (S. parasitica CBS 540.67 [3]; [5])	MIC, Macrodilution (S. parasitica T-1 [4]; [6])	Toxicity (tilapia; Table 4 summary)	LC50 (tilapia; 15° C.)	LC50 (tilapia; 18° C.)	LC50 (tilapia; 25° C.)	MIC (S. parasitica; Saprolegnia parasitica, read-out: Activity in vitro (MIC), value)	MIC (S. parasitica CBS 540.67 [1]; Saprolegnia parasitica, CBS540, 24 h, read-out: MIC, Agar-dilution)	MIC (S. parasitica T-1 [2]; Saprolegnia parasitica, read-out: MIC, Agar-dilution)	MIC (S. parasitica CBS 540.67 [3]; Saprolegnia parasitica, CBS540, 24 h, read-out: MIC, Macrodilution)	MIC (S. parasitica T-1 [4]; Saprolegnia parasitica, read-out: MIC, Macrodilution)	Toxicity (tilapia; in vivo)
O=S(=O)([O-])c1cc(Nc2nc(Nc3ccccc3)nc(N(CCO)CCO)n2)ccc1C=Cc1ccc(Nc2nc(Nc3ccccc3)nc(N(CCO)CCO)n2)cc1S(=O)(=O)[O-].[K+].[Na+] [Blankophor® BA]	Moderate	(100 mg/L)	200 µg/mL	200 µg/mL	200 µg/mL	100 µg/mL	Low (low = >1000 ppm)	>2,000 mg/L	>2,000 mg/L	>2,000 mg/L	–	–	–	–	–	–
C=O [Formaldehyde]	–	–	–	–	–	–	–	–	–	–	100 µg/mL (≈ 3.33 mM)	100 µg/mL (≈ 3.33 mM)	100 µg/mL (≈ 3.33 mM)	100 µg/mL (≈ 3.33 mM)	100 µg/mL (≈ 3.33 mM)	Moderate (key: High: high = 50 ppm; Moderate: moderate = 50-200 ppm; Low: low = >1000 ppm)
